Consider 11 compounds from ChEMBL document CHEMBL1151963 (J Med Chem, 2009).

Series [1] has as its target Phosphatidylinositol 4,5-bisphosphate 3-kinase catalytic subunit alpha isoform (Homo sapiens, UniProt P42336). As to the kind of experiment: Inhibition of PI3Kalpha expressed in Escherichia coli by microtiter plate-based fluorescence polarization assay.
Another series deals with LNCaP. As to the kind of experiment: Cytotoxicity against human LNCAP cells after 3 days by MTS assay. The series is classed as functional, cell-based. Particulars: 72 h. For orientation: Tetrazolium dyes change colour on reduction, which living cells bring about.
The target of series [2] is T1, Serine/threonine-protein kinase mTOR (Homo sapiens, UniProt P42345). The series is described as follows: Inhibition of flag-tagged truncated human mTOR (1360-2549) expressed in HEK293 cells by DELFIA assay. The series is classed as cell-based.
A short description of series [3]: Metabolic stability in nude mouse microsomes assessed as half life at 1 uM by HPLC-MS/MS analysis. The series is classed as ADME, Microsome.
In series [4] the target is Cyclin-dependent kinase 2 (Homo sapiens, UniProt P24941). The series is described as follows: Inhibition of CDK2/cyclinA after 1 hr by mobility shift electrophoresis assay.
Series [5] has as its target Rho-associated protein kinase 1 (Homo sapiens, UniProt Q13464). As to the kind of experiment: Inhibition of ROCK1 after 1 hr by mobility shift electrophoresis assay.
The target of series [6] is Protein kinase C alpha type (Homo sapiens, UniProt P17252). The series is described as follows: Inhibition of PKCalpha after 1 hr by mobility shift electrophoresis assay.
Series [7] deals with T1, Serine/threonine-protein kinase mTOR. The series is described as follows: Inhibition of mTOR complex 1 in human U87MG cells assessed as suppression of S6K phosphorylation at T389 treated for 6 hrs by immunoblotting analysis. The series is classed as cell-based. As to conditions: U-87MG ATCC.
For series [8], the target named is Protein kinase C beta type (Homo sapiens, UniProt P05771). As to the kind of experiment: Inhibition of PKCbeta after 1 hr by mobility shift electrophoresis assay.
Series [9] deals with T1, Serine/threonine-protein kinase mTOR. The series is described as follows: Inhibition of mTOR complex 2 in human U87MG cells assessed as suppression of AKT phosphorylation at S473 treated for 6 hrs by immunoblotting analysis. Particulars: U-87MG ATCC. It is filed as cell-based. For orientation: In western blotting, separated proteins are transferred to a membrane and probed.

Series [10] is described as follows: Antitumor activity against human U87MG cells xenografted in BALB/c nu/nu mouse at 50 mg/kg, ip administered once daily for 5 days measured on day 7 relative to control. It is filed as functional, U-87MG ATCC. As to conditions: route intraperitoneal. In general terms: Xenograft models place foreign cells or tissue in a host animal.
Series [11] has as its target Ribosomal protein S6 kinase alpha-1 (Homo sapiens, UniProt Q15418). As to the kind of experiment: Inhibition of RSK1 after 1 hr by mobility shift electrophoresis assay.
Series [12] has as its target Tyrosine-protein kinase HCK (Homo sapiens, UniProt P08631). As to the kind of experiment: Inhibition of HCK after 1 hr by mobility shift electrophoresis assay.
Series [13] has as its target Platelet-derived growth factor receptor alpha (Homo sapiens, UniProt P16234). As to the kind of experiment: Inhibition of PDGFRalpha after 1 hr by mobility shift electrophoresis assay.
For series [14], the target named is Tyrosine-protein kinase Lyn (Homo sapiens, UniProt P07948). The series is described as follows: Inhibition of LYN after 1 hr by mobility shift electrophoresis assay.
Series [15] concerns the target T1, Serine/threonine-protein kinase mTOR. As to the kind of experiment: Inhibition of mTOR complex 1 in human PC3MM2 cells assessed as suppression of S6K phosphorylation at T389 treated for 6 hrs by immunoblotting analysis. It is filed as cell-based.
A short description of series [16]: Antitumor activity against human U87MG cells xenografted in BALB/c nu/nu mouse at 50 mg/kg, ip administered twice daily for 5 days measured on day 7 relative to control. Particulars: route intraperitoneal. The series is classed as functional, U-87MG ATCC.
Series [17] can be described thus: Inhibition of PIKK assessed as blockade of VP16-induced phosphorylation of ChK1 at S345 at 3 umol/L.
Series [18] deals with Serine/threonine-protein kinase Chk1 (Homo sapiens, UniProt O14757). As to the kind of experiment: Inhibition of CHK1 after 1 hr by mobility shift electrophoresis assay.
The target in series [19] is Tyrosine-protein kinase Fyn (Homo sapiens, UniProt P06241). As to the kind of experiment: Inhibition of FYN after 1 hr by mobility shift electrophoresis assay.
Series [20] concerns Mus musculus. As to the kind of experiment: Inhibition of mTOR complex 2 in BALB/c nu/nu mouse bearing PTEN-null human PC3MM2 xenograft tumor assessed as suppression of P-AKT phosphorylation at S473 at 50 mg/kg, ip administered as single dose for 4 to 6 hrs. It is filed as functional, organism-based. Details: dose 50 mg/kg.
In series [21] the target is Mitogen-activated protein kinase kinase kinase kinase 2 (Homo sapiens, UniProt Q12851). The series is described as follows: Inhibition of GCK after 1 hr by mobility shift electrophoresis assay.
In series [22] the target is Tyrosine-protein kinase ABL1 (Homo sapiens, UniProt P00519). The series is described as follows: Inhibition of ABL1 after 1 hr by mobility shift electrophoresis assay.
The target in series [23] is Inhibitor of nuclear factor kappa-B kinase subunit alpha (Homo sapiens, UniProt O15111). The series is described as follows: Inhibition of IKKalpha after 1 hr by mobility shift electrophoresis assay.
The target in the next series is Aurora kinase B (Homo sapiens, UniProt Q96GD4). As to the kind of experiment: Inhibition of Aurora B after 1 hr by mobility shift electrophoresis assay.
Series [24] deals with Mus musculus. The series is described as follows: Inhibition of mTOR complex 1 in BALB/c nu/nu mouse bearing PTEN-null human PC3MM2 xenograft tumor assessed as suppression of S6K phosphorylation at T389 at 50 mg/kg, ip administered as single dose for 6 hrs. It is filed as functional, organism-based. Details: dose 50 mg/kg.
Series [25] has as its system Mus musculus. As to the kind of experiment: Inhibition of PI3K in BALB/c nu/nu mouse bearing PTEN-null human PC3MM2 xenograft tumor assessed as suppression of AKT phosphorylation at T308 at 50 mg/kg, ip administered as single dose for 4 hrs. It is filed as functional, organism-based. Details: dose 50 mg/kg.
For series [26], the target named is MAP kinase-activated protein kinase 2 (Homo sapiens, UniProt P49137). The series is described as follows: Inhibition of MK2 after 1 hr by mobility shift electrophoresis assay.
The target in series [27] is Phosphatidylinositol 4,5-bisphosphate 3-kinase catalytic subunit gamma isoform (Homo sapiens, UniProt P48736). The series is described as follows: Inhibition of PI3Kgamma.
The nature of series [28]: Inhibition of PKA after 1 hr by mobility shift electrophoresis assay.
Series [29] concerns the target Mitogen-activated protein kinase 14 (Homo sapiens, UniProt Q16539). As to the kind of experiment: Inhibition of p38alpha after 1 hr by mobility shift electrophoresis assay.
For series [30], the target named is RAC-alpha serine/threonine-protein kinase (Homo sapiens, UniProt P31749). As to the kind of experiment: Inhibition of PKBalpha after 1 hr by mobility shift electrophoresis assay.
Series [31] addresses Casein kinase I isoform gamma-1 (Homo sapiens, UniProt Q9HCP0). As to the kind of experiment: Inhibition of CK1gamma1 after 1 hr by mobility shift electrophoresis assay.
The target in series [32] is T1, Serine/threonine-protein kinase mTOR. The series is described as follows: Inhibition of mTOR complex 2 in human PC3MM2 cells assessed as suppression of P-AKT phosphorylation at S473 treated for 6 hrs by immunoblotting analysis. It is filed as cell-based.
In series [33] the target is Proto-oncogene tyrosine-protein kinase Src (Homo sapiens, UniProt P12931). The series is described as follows: Inhibition of SRC after 1 hr by mobility shift electrophoresis assay.
Series [34] deals with Mitogen-activated protein kinase 1 (Homo sapiens, UniProt P28482). The series is described as follows: Inhibition of ERK2 after 1 hr by mobility shift electrophoresis assay.
In series [35] the target is Vascular endothelial growth factor receptor 2 (Homo sapiens, UniProt P35968). As to the kind of experiment: Inhibition of VEGFR2 after 1 hr by mobility shift electrophoresis assay.
In series [36] the target is Cyclin-dependent kinase 1/cyclin B1 (Homo sapiens, UniProt P06493). The series is described as follows: Inhibition of CDK1/cyclinB after 1 hr by mobility shift electrophoresis assay. It is filed as protein-complex assay.
Series [37] is described as follows: Inhibition of PIKK assessed as blockade of VP16-induced phosphorylation of p53 at S15 at 3 umol/L.

The source made the active and inactive calls. No cut-off for these calls is given here.

Phosphatidylinositol 4,5-bisphosphate 3-kinase catalytic subunit alpha isoform, sequence (P42336 whole entry, canonical isoform): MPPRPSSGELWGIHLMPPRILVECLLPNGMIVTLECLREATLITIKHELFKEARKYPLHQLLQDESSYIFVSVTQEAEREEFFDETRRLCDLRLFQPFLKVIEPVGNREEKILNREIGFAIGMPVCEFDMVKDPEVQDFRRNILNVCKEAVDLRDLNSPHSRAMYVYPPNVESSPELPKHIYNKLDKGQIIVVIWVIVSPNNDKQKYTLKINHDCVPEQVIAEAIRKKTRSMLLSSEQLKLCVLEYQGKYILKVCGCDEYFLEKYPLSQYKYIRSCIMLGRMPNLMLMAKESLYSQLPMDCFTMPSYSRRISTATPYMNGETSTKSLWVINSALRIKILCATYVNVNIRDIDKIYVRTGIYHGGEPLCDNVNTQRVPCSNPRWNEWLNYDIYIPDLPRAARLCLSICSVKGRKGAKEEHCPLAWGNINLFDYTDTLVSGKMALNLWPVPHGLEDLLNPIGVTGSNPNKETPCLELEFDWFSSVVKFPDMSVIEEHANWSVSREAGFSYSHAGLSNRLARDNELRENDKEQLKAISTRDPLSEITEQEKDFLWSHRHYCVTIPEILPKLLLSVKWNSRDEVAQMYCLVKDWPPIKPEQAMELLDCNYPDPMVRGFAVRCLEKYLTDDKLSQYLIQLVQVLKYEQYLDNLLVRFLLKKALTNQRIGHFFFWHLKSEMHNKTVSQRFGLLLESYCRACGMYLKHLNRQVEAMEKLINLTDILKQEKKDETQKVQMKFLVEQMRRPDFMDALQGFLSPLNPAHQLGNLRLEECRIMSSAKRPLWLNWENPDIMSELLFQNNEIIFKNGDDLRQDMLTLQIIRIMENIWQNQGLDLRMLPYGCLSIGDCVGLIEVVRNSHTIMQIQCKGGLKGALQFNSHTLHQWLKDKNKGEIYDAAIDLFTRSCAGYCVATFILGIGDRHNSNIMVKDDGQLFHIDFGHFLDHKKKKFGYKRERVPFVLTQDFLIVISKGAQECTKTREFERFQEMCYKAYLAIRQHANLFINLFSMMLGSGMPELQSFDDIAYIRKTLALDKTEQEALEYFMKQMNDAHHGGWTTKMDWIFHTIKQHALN
MAP kinase-activated protein kinase 2, sequence (P49137 whole entry, canonical isoform): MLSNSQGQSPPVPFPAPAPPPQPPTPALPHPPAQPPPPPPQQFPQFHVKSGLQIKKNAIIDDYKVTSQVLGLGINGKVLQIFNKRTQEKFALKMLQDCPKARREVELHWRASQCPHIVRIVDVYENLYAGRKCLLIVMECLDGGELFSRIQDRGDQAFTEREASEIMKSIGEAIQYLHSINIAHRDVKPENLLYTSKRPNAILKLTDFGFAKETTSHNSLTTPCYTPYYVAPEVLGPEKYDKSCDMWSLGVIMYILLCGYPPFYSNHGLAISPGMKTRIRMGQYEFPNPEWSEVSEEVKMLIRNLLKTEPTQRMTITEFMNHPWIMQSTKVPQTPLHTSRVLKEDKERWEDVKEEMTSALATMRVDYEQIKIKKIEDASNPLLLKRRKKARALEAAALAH
Phosphatidylinositol 4,5-bisphosphate 3-kinase catalytic subunit gamma isoform, sequence (P48736 whole entry, canonical isoform): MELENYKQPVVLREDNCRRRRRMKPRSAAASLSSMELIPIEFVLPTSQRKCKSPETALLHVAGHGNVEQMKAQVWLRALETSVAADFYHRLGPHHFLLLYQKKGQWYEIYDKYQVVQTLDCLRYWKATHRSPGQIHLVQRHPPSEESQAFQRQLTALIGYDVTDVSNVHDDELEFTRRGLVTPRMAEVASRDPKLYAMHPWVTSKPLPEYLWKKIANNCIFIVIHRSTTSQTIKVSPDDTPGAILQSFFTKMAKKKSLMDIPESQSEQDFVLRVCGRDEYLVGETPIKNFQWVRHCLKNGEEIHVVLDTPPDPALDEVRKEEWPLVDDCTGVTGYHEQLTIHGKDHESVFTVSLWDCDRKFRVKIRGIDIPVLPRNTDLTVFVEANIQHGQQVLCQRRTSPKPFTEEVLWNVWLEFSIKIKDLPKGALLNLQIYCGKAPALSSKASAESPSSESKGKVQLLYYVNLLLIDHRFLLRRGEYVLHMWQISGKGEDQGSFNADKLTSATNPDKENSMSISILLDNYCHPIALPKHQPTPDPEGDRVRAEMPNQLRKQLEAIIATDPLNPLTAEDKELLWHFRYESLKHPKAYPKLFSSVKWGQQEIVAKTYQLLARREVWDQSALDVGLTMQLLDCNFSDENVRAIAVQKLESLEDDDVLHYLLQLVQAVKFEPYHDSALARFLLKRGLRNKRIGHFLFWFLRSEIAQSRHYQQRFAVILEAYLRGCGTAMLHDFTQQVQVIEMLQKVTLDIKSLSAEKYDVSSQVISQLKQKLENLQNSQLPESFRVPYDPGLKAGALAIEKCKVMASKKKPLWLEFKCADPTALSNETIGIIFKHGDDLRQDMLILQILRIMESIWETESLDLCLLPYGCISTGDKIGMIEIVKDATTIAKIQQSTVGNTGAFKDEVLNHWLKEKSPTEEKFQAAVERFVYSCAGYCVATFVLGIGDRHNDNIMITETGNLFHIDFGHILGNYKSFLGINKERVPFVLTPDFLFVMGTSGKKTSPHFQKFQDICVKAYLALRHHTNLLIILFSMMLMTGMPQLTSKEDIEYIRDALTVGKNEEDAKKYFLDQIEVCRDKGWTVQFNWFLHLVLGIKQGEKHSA
Casein kinase I isoform gamma-1, sequence (Q9HCP0 whole entry, canonical isoform): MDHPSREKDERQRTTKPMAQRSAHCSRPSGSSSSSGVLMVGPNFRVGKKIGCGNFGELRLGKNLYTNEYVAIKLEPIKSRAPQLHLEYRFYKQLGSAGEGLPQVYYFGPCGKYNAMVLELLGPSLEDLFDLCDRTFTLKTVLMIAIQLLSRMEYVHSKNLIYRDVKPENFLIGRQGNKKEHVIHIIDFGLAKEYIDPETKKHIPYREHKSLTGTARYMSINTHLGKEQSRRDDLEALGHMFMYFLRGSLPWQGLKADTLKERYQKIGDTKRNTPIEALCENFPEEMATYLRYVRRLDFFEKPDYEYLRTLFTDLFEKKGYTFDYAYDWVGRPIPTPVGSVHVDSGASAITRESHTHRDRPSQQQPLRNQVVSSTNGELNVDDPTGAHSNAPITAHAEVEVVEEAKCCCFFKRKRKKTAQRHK
RAC-alpha serine/threonine-protein kinase, sequence (P31749 whole entry, canonical isoform): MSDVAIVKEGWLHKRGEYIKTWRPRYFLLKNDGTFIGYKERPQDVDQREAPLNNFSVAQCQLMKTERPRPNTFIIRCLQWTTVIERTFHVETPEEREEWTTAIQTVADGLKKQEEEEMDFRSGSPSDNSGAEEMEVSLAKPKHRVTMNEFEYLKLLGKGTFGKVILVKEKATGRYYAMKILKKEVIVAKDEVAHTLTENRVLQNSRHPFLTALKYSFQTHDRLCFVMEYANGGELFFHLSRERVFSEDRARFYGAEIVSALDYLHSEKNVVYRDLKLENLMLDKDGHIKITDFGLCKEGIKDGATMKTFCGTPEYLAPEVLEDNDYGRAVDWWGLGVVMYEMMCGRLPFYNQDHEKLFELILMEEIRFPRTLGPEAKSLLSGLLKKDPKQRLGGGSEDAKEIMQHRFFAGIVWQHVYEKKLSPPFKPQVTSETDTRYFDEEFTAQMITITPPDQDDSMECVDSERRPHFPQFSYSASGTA
Rho-associated protein kinase 1, sequence (Q13464 whole entry): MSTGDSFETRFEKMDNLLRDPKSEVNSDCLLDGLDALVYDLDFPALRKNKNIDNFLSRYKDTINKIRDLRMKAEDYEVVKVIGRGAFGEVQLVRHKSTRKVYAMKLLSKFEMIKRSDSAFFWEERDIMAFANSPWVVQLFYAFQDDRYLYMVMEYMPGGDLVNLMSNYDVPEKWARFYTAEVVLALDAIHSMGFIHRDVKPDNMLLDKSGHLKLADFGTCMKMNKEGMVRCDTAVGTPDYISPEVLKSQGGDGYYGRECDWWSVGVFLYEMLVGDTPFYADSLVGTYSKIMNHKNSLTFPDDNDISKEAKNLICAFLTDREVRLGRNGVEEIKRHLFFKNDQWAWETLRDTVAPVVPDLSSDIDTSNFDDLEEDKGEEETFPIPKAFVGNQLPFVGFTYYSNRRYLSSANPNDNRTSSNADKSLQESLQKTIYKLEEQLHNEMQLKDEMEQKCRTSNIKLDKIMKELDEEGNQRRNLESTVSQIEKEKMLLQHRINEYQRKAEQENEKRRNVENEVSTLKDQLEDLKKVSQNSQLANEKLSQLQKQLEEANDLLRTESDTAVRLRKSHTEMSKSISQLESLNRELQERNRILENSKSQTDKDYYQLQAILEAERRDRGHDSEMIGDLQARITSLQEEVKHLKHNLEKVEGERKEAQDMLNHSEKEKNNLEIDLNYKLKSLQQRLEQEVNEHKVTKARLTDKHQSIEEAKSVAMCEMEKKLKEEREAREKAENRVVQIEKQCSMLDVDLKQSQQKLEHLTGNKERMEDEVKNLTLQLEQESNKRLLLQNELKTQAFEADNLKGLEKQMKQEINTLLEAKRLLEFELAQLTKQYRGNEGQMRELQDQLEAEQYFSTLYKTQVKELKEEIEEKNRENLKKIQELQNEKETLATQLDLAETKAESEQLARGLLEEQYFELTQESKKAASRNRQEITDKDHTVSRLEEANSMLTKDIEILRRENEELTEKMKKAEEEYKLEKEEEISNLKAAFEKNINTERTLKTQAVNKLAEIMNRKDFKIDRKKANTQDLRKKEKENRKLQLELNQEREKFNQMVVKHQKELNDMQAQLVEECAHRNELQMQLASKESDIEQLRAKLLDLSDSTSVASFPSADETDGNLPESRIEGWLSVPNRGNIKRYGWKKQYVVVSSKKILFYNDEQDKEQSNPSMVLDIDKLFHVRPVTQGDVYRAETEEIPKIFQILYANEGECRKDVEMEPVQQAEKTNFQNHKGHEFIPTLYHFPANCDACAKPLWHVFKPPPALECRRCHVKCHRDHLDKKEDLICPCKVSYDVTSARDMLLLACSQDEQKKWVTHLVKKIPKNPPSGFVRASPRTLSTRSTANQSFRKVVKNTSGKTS

Turning to `O=C(Nc1ccncc1)Nc1ccc(-c2nc(N3CCOCC3)c3cnn(C4CCN(C(=O)c5cccnc5)CC4)c3n2)cc1`, the 50% inhibitory concentration (IC50) (in general, the midpoint of a concentration-inhibition curve) stood at 548 nM in [1], 150 nM in the series on LNCaP and 0.83 nM in series [2]. Moreover, the half-life (as a rule, the time in which the quantity being followed falls by half) at 1 µM in series [3] came out at 22 min.
The like results for `COC(=O)N1CCC(n2ncc3c(N4CCOCC4)nc(-c4ccc(NC(=O)Nc5cccnc5)cc4)nc32)CC1` were, in that order, 35 nM, 31 nM, 0.2 nM and 24 min.
`Oc1cccc(-c2nc(N3CCOCC3)c3cnn(C4CCN(Cc5cccnc5)CC4)c3n2)c1`: the 50% inhibitory concentration (IC50) with LNCaP came to 53 nM; in [2], 9.6 nM. Also, the half-life at 1 µM in [3] was 5 min.
For `O=C(Nc1ccc(-c2nc(N3CCOCC3)c3cnn(C4CCN(Cc5cccnc5)CC4)c3n2)cc1)OCCO`, in series [3], the half-life at 1 µM worked out at 6 min.
As to `COC(=O)Nc1ccc(-c2nc(N3CCOCC3)c3cnn(C4CCN(C(=O)OC)CC4)c3n2)cc1`, the IC50 is > 50 µM in series [4]; > 50 µM in series [5]; 1030 nM in series [1]; > 50 µM in [6]; > 50 µM in series [8]; > 50 µM in [11]. Besides, the IC50 in series [12], in series [13], in [14], in series [18], in series [19] and in series [21] was > 50 µM throughout. Besides, the IC50 in series [22] is > 50 µM; in [23] it was > 50 µM; on Aurora kinase B, > 50 µM; with LNCaP it was 355 nM; in [2] it was 4.3 nM; in series [26] it was > 50 µM. For the same compound, the half-maximal inhibitory concentration (IC50) was 6.32 µM in series [27]; > 50 µM in series [28]; > 50 µM in [29]; > 50 µM in [30]; > 50 µM in series [31]; > 50 µM in series [33]. Moreover, the IC50 in series [34], in [35] and in series [36] was > 50 µM in each case. The Activity entry in series [7], in series [9], in series [15] and in [32] was “Dose-dependent effect” throughout. For the same compound, the T/C in series [10] was found to be 0.62; in [16], 0.14. The result (in series [17]; with Mus musculus [25]; in series [37]) was inactive. Moreover, the outcome with Mus musculus [20] and in the series with Mus musculus [24] was Active. The half-life at 1 µM in [3] is > 30 min.
As to `CNC(=O)Nc1ccc(-c2nc(N3CCOCC3)c3cnn(C4CCN(C(C)=O)CC4)c3n2)cc1`, the half-maximal inhibitory concentration (IC50) in the series on LNCaP was 817 nM; in series [2] (hek293) it was 2.1 nM. Besides, the half-life at 1 µM in [3] was determined as 27 min.
In the case of `COC(=O)N1CCC(n2ncc3c(N4CCOCC4)nc(-c4ccc(NC(=O)Nc5ccc(CO)cc5)cc4)nc32)CC1`, the values for the half-inhibitory concentration (IC50) (in series [1]; with LNCaP; in series [2] (hek293)) were 6 nM, < 1 nM and 0.08 nM, respectively. Further, the half-life at 1 µM in series [3] is 13 min.
Take `COC(=O)Nc1ccc(-c2nc(N3CCOCC3)c3cnn(C4CCN(Cc5cccnc5)CC4)c3n2)cc1`: the half-life at 1 µM in [3] is 14 min.
In the case of `COC(=O)N1CCC(n2ncc3c(N4CCOCC4)nc(-c4ccc(NC(=O)Nc5ccncc5)cc4)nc32)CC1`, the results for the IC50 (in series [1]; in the series with LNCaP; in series [2] (hek293)) were 18 nM, 60 nM and 0.3 nM, respectively. In [3], the half-life at 1 µM turned out to be 9 min.
In the case of `CNC(=O)Nc1ccc(-c2nc(N3CCOCC3)c3cnn(C4CCN(C(=O)N(C)C)CC4)c3n2)cc1`, the values for the IC50 (with LNCaP; in [2]) were 197 nM and 1.1 nM, respectively. In series [3], the half-life at 1 µM was > 30 min.
In the case of `CNC(=O)Nc1ccc(-c2nc(N3CCOCC3)c3cnn(C4CCN(C(=O)NC)CC4)c3n2)cc1`, the IC50 in the series with LNCaP was 2570 nM; in series [2] (hek293), 2 nM.
